{"source": "patent US8044103B2", "about": "“Cyclic dipeptides and azetidinone compounds and their use in treating CNS injury and neurodegenerative disorders” (Georgetown University, priority 1998, dated 2011)", "key": {"[1]": {"test_system": "traumatic spinal cord injury", "conditions": "in vivo; cited from earlier work"}, "[2]": {"test_system": "rats following moderate fluid percussion injury", "experiment": "Mortality after moderate fluid percussion injury", "format": "in vivo, Male Sprague-Dawley rats", "conditions": "1 mg/kg i.v. 30 min following moderate fluid percussion injury; died before the end of the study; saline 21.4% and 37.5%", "procedure": "Rats were anesthetized with sodium pentobarbital (70 mg/kg i.p.), intubated, and implanted with femoral venous and arterial catheters. Brain temperature was assessed indirectly through a thermister in the temporalis muscle. Body temperature was maintained through a feedback-controlled heating blanket. Blood pressure was continuously monitored, and arterial blood gases analyzed periodically. After the animal was placed in a stereotaxic frame, the scalp and temporal muscle were reflected, and a small craniotomy (5 mm) located midway between the lambda and bregma sutures over the left parietal cortex allowed insertion of a Leur-Loc that is cemented in place. The fluid-percussion head injury device, manufactured by the Medical College of Virginia, consists of a plexiglass cylindrical reservoir filled with isotonic saline; one end includes a transducer that is mounted and connected to a 5 mm tube that attaches through a male Leur-Loc fitting to the female Leur-Loc cemented at the time of surgery. A pendulum strikes a piston at the opposite end of the device, producing a pressure pulse of approximately 22 msec duration, leading to deformation of underlying brain. The degree of injury is related to the pressure pulse, expressed in atmospheres (atm): 2.6 atm in our laboratory produces a moderate injury with regard to neurological and histological deficit. Sham (control) animals undergo anesthesia and surgery without fluid percussion brain injury. […]\n(§1) Continuous variables compared across groups were examined using an analysis of variance (ANOVA) followed by Bonferroni correction (rightin reflex). Continuous variables subjected to repeated measurements over a period of time (cardiovascular and core temperature measurements) were analyzed using a repeated measurements ANOVA followed by Tukey's pairwise comparison at each time point. Ordinal measurements (composite neurological scores) were evaluated using the non-parametric Kruskal-Wallis ANOVA with individual, non-parametric Mann-Whitney U-tests. […]"}, "[3]": {"test_system": "mice following controlled cortical impact injury (CCI)", "experiment": "Beam walking task after controlled cortical impact injury (chronic neurological recovery)", "format": "in vivo, Male C57Bl/6 mice", "conditions": "1 mg/kg following CCI injury; small group size (n=6)", "procedure": "Male C57Bl/6 mice (20-25 g) were obtained from Taconic Farms (Germantown, N.Y.) and housed in an area directly adjoining surgical and behavioral rooms for at least 1 week prior to any procedures. All mice were maintained at a constant temperature (22±2° C.) and a 12 hr light/dark cycle, with lights on at 6 am and all behavioral testing performed during the light cycle. Food and water were available ad libitumn.\nThe injury device consisted of a microprocessor-controlled pneumatic impactor with a 3.5 mm diameter tip. The impactor is vertically mounted on a mill table (Sherline, USA) which allows for precise adjustment in the vertical plane above the mouse head, which itself is secured to a stereotaxic apparatus (David Kopf Instruments, CA) attached to the instrument. The core rod of a linear voltage differential transducer (LVDT, Serotec, USA) is attached to the lower end of the impactor to allow measurement of velocities between 3.0 and 9.0 m/s. Velocity of the impactor is controlled by fine tuning both positive and negative (back) air pressures. An oscilloscope (Tektronix, USA) records the time/displacement curve produced by the downward force on the LVDT, allowing precise measurement of the impactor velocity.\nSurgical anesthesia was induced and maintained with 4% and 2% isoflurane respectively, using a flow rate of 1.0-1.5 l oxygen per minute. Depth of anesthesia was assessed by monitoring respiration rate and palpebral and pedal-withdrawal reflexes. The animal was then placed onto a heated pad and core body temperature was monitored and maintained at 38+/−0.2° C. The head was mounted in a stereotaxic frame and the surgical site clipped and prepared with a series of three Nolvasan scrubs followed by sterile saline rinses. A 10 mm mid-line incision was made over the skull, the skin and fascia reflected, and a 4 mm craniotomy made on the central aspect of the left parietal bone with a tissue punch (Roboz, USA). Great care was taken with the removal of the parietal bone to avoid injury to the underlying dura mater which was continuously bathed in sterile normal saline warmed to 37.5° C. The impounder tip of the pneumatic injury device was cleaned with a pad, soaked in absolute alcohol, positioned to the surface of the exposed dura and automatically withdrawn the 44 mm stroke distance. Following injury at a moderate (6.0 m/s velocity, 1 mm tissue deformation depth) level, the incision was closed with interrupted 6-0 silk sutures, anaesthesia was discontinued and the mouse was placed into a heated cage to maintain normothermia for 45 minutes post-injury. All animals were monitored carefully for at least 4 hours post-surgery and then daily. To minimize variation between animals due to anaesthesia during acute neurological testing, 20 minutes was allowed for surgery and 5 minutes for suturing for each animal.\nConscious mice were placed in a mouse restrainer and injected via the lateral tail vein with either normal saline (injured controls; n=6), 1 mg/kg Compound 2a (n=8), Compound 10b (n=6), Compound 11b (n=6) or Compound 14c (n=6) at 30 minutes following controlled cortical impact injury (CCI). The values for n represents the number of mice in the particular treatment group. The investigator was blinded to drug treatment both at the time of surgery and for neurological and behavioral scoring.\nChronic neurological recovery was evaluated for all animals using a beam walking task, a method which is particularly good at discriminating fine motor coordination differences between injured and sham-operated animals. The device consisted of a narrow wooden beam 6 mm wide and 120 mm in length which was suspended 300 mm above a 60 mm-thick foam rubber pad. The mouse was placed on one end of the beam and the number of footfaults for the right hindlimb recorded over 50 steps counted in either direction on the beam. A basal level of competence at this task was established before surgery with an acceptance level of <10 faults per 50 steps. […]"}, "[4]": {"test_system": "cats subjected to brainstem compression", "conditions": "cited from earlier work"}, "[5]": {"test_system": "head impact trauma in mice", "conditions": "cited from earlier work"}, "[6]": {"conditions": "in vivo; cited from earlier work"}, "[7]": {"test_system": "traumatic spinal cord injury in cats", "conditions": "cited from earlier work"}, "[8]": {"test_system": "fully conscious and unrestrained rats", "experiment": "Mean arterial blood pressure in conscious unrestrained rats (autonomic study)", "format": "in vivo", "conditions": "1 mg/kg i.v., over the duration of testing", "text": "To assess autonomic responses to the novel TRH analogues, a separate group of rats were anesthetized with 4% isoflurane (1.5 L/min). Catheters were then placed into the right artoid artery and right jugular vein and exteriorized at the back of the neck. Rats were separated one per cage and allowed to recover from anesthesia. The exteriorized catheters were suspended above the rat to prevent biting. Mean […] blood pressure (MAP) was continuously recorded via a transducer connected directly to the arterial catheter for the duration of the study. At 1 h following catheter placement, rats were administered vehicle or drug via the catheter in the jugular vein as described below. […]\nas §1"}, "[9]": {"test_system": "lightly anesthetized rats", "experiment": "Core body temperature in lightly anesthetized uninjured rats (analeptic study)", "format": "in vivo", "conditions": "1 mg/kg i.v.; over 60 min following anesthesia; p<0.001 vs all other groups at 20-60 min", "procedure": "(§2) Additional groups of uninjured rats were tested for autonomic and analeptic responses immediately prior to and up to 60 min. following drug administration. For the analeptic study, rats were first anesthetized with 40 mg/kg i.p. sodium pentabarbitone and placed onto an unheated pad on the laboratory bechtop at room temperature (22±2° C.). A thermister probe was placed in the rectum to measure core body temperature. After a 10 min. period, rats were administered vehicle or drug as described below via the tail vein. Time to recovery of the righting-reflex was subsequently determined while temperature was recorded at 5 min. intervals for all animals. […]\nas §1"}, "rats following trauma": {"test_system": "rats following trauma", "conditions": "cited from earlier work"}, "[10]": {"test_system": "lightly anesthetized rats", "experiment": "Latency to recover righting reflex after light anesthesia (analeptic study)", "format": "in vivo", "conditions": "i.v., doses of 1 mg/kg and 10 mg/kg (FIG. 11); after 40 mg/kg i.p. sodium pentobarbitone", "procedure": "as §2, §1"}, "[11]": {"test_system": "central facilitating activity", "conditions": "cited from earlier work"}}}
{"smiles": "NC(=O)[C@@H]1CCCN1C(=O)[C@H](Cc1cnc[nH]1)NC(=O)c1cc(=O)[nH]c(=O)[nH]1", "note": "[CG3509]", "values": [{"measurement": "outcome following traumatic spinal cord injury", "setting": "[1]", "result": "improve outcome"}]}
{"smiles": "C[C@H]1SC[C@@H](C(=O)N[C@H](Cc2c[nH]cn2)C(=O)N2CCC[C@H]2C(N)=O)NC1=O", "note": "[CG3703]", "values": [{"measurement": "outcome following traumatic spinal cord injury", "setting": "[1]", "result": "improve outcome"}]}
{"smiles": "O=C1NC2(CC2)C(=O)N2CCC[C@@H]12", "note": "[Compound 1a, Cyclo [(1-Amino-1-Cyclopropane-Carboxylic Acid)-Pro]]", "values": [{"measurement": "mortality rate", "setting": "[2]", "result": 28.6, "unit": "%"}]}
{"smiles": "CC(C)(C)SC[C@@H]1NC(=O)[C@@H]2CCCN2C1=O", "note": "[Compound 4a, Cyclo(t-Butyl-Cys-Pro)]", "values": [{"measurement": "mortality rate", "setting": "[2]", "result": 0, "unit": "%"}]}
{"smiles": "NC(=O)[C@@H]1CCCN1C(=O)C1(NC(=O)[C@@H]2CC(=O)N2)CC1", "note": "[Compound 10b, N^1-[1-[N—[(S)-4-Oxo-Azetidine-2-Carbonyl]Amino]Cyclopropane-Carbonyl]Prolinamide]", "values": [{"measurement": "performance deficits in the beamwalking task compared with saline vehicle", "setting": "[3]", "result": "attenuated"}]}
{"smiles": "NC(=O)[C@@H]1CCCN1C(=O)C1(NC(=O)[C@@H]2CC(=O)N2)CCCCC1", "note": "[Compound 11b]", "values": [{"measurement": "performance deficits in the beamwalking task compared with saline vehicle", "setting": "[3]", "result": "attenuated"}]}
{"smiles": "NC(=O)[C@H]1CSCN1C(=O)[C@H](Cc1cnc[nH]1)NC(=O)[C@@H]1CCCC(=O)N1", "note": "[MK-771]", "values": [{"measurement": "outcome following traumatic spinal cord injury", "setting": "[1]", "result": "ineffective"}]}
{"smiles": "CC1(C)CCN(C(=O)[C@H](Cc2cnc[nH]2)NC(=O)[C@@H]2CCC(=O)N2)[C@@H]1C(N)=O", "note": "[RX-77368]", "values": [{"measurement": "outcome following traumatic spinal cord injury", "setting": "[1]", "result": "ineffective"}]}
{"smiles": "NC(=O)[C@@H]1CCCN1C(=O)[C@H](Cc1cnc[nH]1)NC(=O)[C@@H]1CCC(=O)N1", "note": "[TRH, L-pyroglutamyl-L-histidyl-L-prolinamide]", "values": [{"measurement": "electrical activity and neurological recovery after brainstem compression", "setting": "[4]", "result": "improve electrical activity and neurological recovery"}, {"measurement": "postconcussional behavioral suppression following head impact trauma", "setting": "[5]", "result": "shorten postconcussional behavioral suppression"}, {"measurement": "plasma half-life", "setting": "[6]", "result": "4 to 5", "unit": "min"}, {"measurement": "neurological deficits after traumatic spinal cord injury", "setting": "[7]", "result": "reduces neurological deficits"}]}
{"smiles": "NC(=O)[C@@H]1CCCN1C(=O)[C@H](Cc1cnc[nH]1)NC(=O)[C@@H]1CC(=O)N1", "note": "[YM-14673, N^α-[(S)-4-Oxo-Azetidine-2-Carbonyl]-L-Histidyl-L-Prolinamide]", "values": [{"measurement": "mean arterial blood pressure (MAP) compared with vehicle / other groups", "setting": "[8]", "result": "significantly higher MAP"}, {"measurement": "core temperature maintained", "setting": "[9]", "result": "37-38 °C"}, {"measurement": "chronic neurological recovery following trauma", "setting": "rats following trauma", "result": "improved chronic neurological recovery"}, {"measurement": "latency to recovery of righting reflex compared with saline", "setting": "[10]", "result": "significantly attenuated"}, {"measurement": "duration of action relative to TRH (longer acting)", "setting": "[11]", "result": "8-36 times"}, {"measurement": "potency relative to TRH", "setting": "[11]", "result": "10-100 times"}]}
